Data from patent EP3613735A1, “NOVEL SIRT 1 ACTIVATOR AND MEDICINAL USE THEREOF” (Pusan National University Industry - University Cooperation …, priority 2017, dated 2018).

Key:
skin fibroblasts = assay: β-galactosidase staining of UVB-induced cell aging; format: cell-based; conditions: UVB of 12 mJ/cm^2; pretreated at 1 µM for 24 hours
Method: β-galactosidase is used to induce cellular aging of fibroblasts, which are the main cells of the epidermal layer of skin, by using UVB, the most important environmental factor in skin aging, as the most common marker for cell aging and β-galactosidase staining was performed to analyze the cell aging protection of Compound 32u. […]

db/db mice [1] = assay: Dietary intake and weight in obese animal model; format: in vivo, mouse; conditions: oral 5 mg/kg daily for 4 weeks, compared to db/db mice group
Method: The metabolic disease control ability of Compound 32u was analyzed using db/db mice lacking an appetite-regulating hormone leptin receptor as an obese animal model. Compound 32u was orally administered to db/db mice (9 weeks old) at a concentration of 5 mg/kg daily for 4 weeks. The metabolic disease control ability of Compound 70c was analyzed using db/db mice lacking an appetite-regulating hormone leptin receptor as an obese animal model. Compound 70c was orally administered to db/db mice (9 weeks old) at a concentration of 5 mg/kg daily for 4 weeks.

SIRT 1 = biological target: T1, SIRT 1 (Homo sapiens, UniProt Q96EB6); assay: SIRT 1 fluorometric drug discovery kit (AK-555, Biomol), deacetylation of Fluor de Lys-SIRT 1 substrate; format: biochemical; conditions: 100 µM candidate vs 100 µM resveratrol positive control; 25 µM Fluor de Lys-Sirt1, 25 µM NAD+
T1 sequence (Q96EB6 1-747): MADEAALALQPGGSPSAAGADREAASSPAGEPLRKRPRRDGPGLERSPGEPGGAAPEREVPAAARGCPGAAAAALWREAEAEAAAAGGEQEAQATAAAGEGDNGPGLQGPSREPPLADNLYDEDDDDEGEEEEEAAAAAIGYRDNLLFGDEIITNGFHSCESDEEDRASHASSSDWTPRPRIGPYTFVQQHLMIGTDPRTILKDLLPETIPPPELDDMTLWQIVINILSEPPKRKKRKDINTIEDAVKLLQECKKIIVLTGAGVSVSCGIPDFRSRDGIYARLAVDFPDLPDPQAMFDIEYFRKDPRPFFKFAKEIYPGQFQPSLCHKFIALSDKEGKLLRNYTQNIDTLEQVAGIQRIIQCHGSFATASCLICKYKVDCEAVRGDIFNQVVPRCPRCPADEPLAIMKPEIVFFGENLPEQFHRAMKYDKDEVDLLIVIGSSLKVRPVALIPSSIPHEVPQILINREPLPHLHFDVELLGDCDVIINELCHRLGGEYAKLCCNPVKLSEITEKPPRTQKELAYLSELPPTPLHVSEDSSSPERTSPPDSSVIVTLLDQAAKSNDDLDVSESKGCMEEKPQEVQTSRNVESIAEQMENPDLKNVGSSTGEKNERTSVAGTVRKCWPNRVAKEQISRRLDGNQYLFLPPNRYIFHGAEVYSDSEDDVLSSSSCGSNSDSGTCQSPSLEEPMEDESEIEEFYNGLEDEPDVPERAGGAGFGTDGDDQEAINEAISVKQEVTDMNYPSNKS
Method: SIRT 1 activity of candidate SIRT 1 activator compounds synthesized based on the benzo[d]furan backbone were measured using a SIRT 1 fluorometric drug discovery kit (AK-555, Biomol). Briefly, as the substrate for analysis, 0.2 U/L of Fluor de Lys-SIRT 1 substrate developer mixture is used, which is amino acid 379382 of human […] AC), and SIRT 1 incubated with cosubstrate NAD^+. The degree of initial deacetylation of SIRT 1 for 100 μM candidate was measured using 100 μM resveratrol as a positive control in 25 μM Fluor de Lys-Sirt1 and 25 μM NAD^+ environments. The reaction was stopped using Fluor de LysTM Developer II/2 mM nicotinamide, followed by measuring fluorescence (Excitation: 360 nm, Emission: 460 nm). The SIRT 1 activity for candidate SIRT 1 activator compounds synthesized based on the benzo[d]oxazole backbone were measured using SIRT 1 fluorometric drug discovery kit (AK-555, Biomol). Briefly, 0.2 U/L of Fluor de Lys-SIRT 1 substrate developer mixture liquid was used as the analytical substrate, meaning amino acid 379382 of human […] […] The initial degree of deacetylation of SIRT 1 for 100 μM candidate was measured using 100 μM resveratrol as a positive control in 25 μM Fluor de Lys-Sirt1 and 25 μM NAD+. The reaction was stopped using Fluor de LysTM Developer II/2 mM nicotinamide, followed by fluorescence (Excitation: 360 nm, Emission: 460 nm).

db/db mice [2] = assay: Neutral fat in the liver (fatty liver) in obese animal model; format: in vivo, mouse; conditions: oral 5 mg/kg daily for 4 weeks
Method: Since obesity and insulin resistance are representative diseases directly related to the development of non-alcoholic fatty liver, the improvement effect of Compound 32u on fatty liver was analyzed. Compound 32u was orally administered to db/db mice (9 weeks old) at a concentration of 5 mg/kg daily for 4 weeks. First, the accumulation of fat in the liver, the most representative phenotype, was measured. Briefly, about 50 mg of liver was quantified in cold phosphate buffered saline (PBS) or 0.9% sodium chloride (NaCl) and crushed, followed by treating with mixed solvent of chloroform and methanol (MeOH) in a volume ratio of 2:1 and reacted for 2 hours. […] Thereafter, the amount of neutral fat was measured by absorbance using a neutral fat measurement kit (Stanbio laboratory, TX USA). Since obesity and insulin resistance are representative diseases directly related to the development of non-alcoholic fatty liver, the improvement effect of Compound 70c on fatty liver was analyzed. […] First, the accumulation of fat in the liver, the most representative phenotype, was measured. Briefly, about 50 mg of liver was quantified in cold phosphate buffered saline (PBS) or 0.9% sodium chloride (NaCl) and crushed, followed by treating with mixed solvent of chloroform and methanol (MeOH) in a volume ratio of 2:1 and reacted for 2 hours. […]

Cl.O=C(Nc1ccccc1-c1cc2ccc(CN3CCNCC3)cc2o1)c1ccc2ccccc2c1 [Compound 32u, N-(2-(6-(Piperazin-1-ylmethyl)benzofuran-2-yl)phenyl)-2-naphthamide hydrochloride]
β-galactosidase staining (skin fibroblasts): reduced
dietary intake (db/db mice [1]): no difference
weight (db/db mice [1]): no difference
SIRT 1 activity (SIRT 1): higher SIRT 1 activity effect than resveratrol
neutral fat in the liver (db/db mice [2]): reduced neutral fat

O=C(Nc1ccccc1-c1nc2cc(CN3CCN(C4CCCCC4)CC3)ccc2o1)c1ccc2ccccc2c1 [Compound 70c, N-(2-(5-((4-Cyclohexylpiperazin-1-yl)methyl)benzo[d]oxazol-2-yl)phenyl)-2-naphthamide]
β-galactosidase staining (skin fibroblasts): reduced
dietary intake (db/db mice [1]): no difference
weight (db/db mice [1]): no difference
SIRT 1 activity (SIRT 1): higher SIRT 1 activity effect than resveratrol
neutral fat in the liver (db/db mice [2]): reduced neutral fat
